From patent US7579356B2, “Thia-tetraazaacenaphthylene kinase inhibitors” (Janssen Pharmaceutica NV, priority 2005, dated 2009)
Values joined by “and” are separate entries in the source; they are usually repeats but may differ in a detail not shown here. Equal entries are not always repeated.

How the values were obtained:
BT474 breast carcinoma = assay: Cell Proliferation Inhibition Assay, BT474 (14C-thymidine); assay type: cell-based; conditions: Homo sapiens, BT-474, C14 method
Text: (§1) Cell Proliferation Inhibition Assay
(§2) The ability of a test compound to inhibit unregulated cell proliferation may be determined by measuring incorporation of ^14C-labelled thymidine into newly synthesized DNA within cell lines derived from carcinomas originating from several tissues. Accordingly, the effect of a test compound on proliferation of cells with a variety of phenotypes may be determined.
(§3) Carcinoma cell lines used include the HeLa cervical adenocarcinoma from the American Type Culture Collection (ATCC Cat. #CCL2), A375 malignant melanoma (ATCC Cat. #CRL-1619), HCT-116 colon carcinoma (ATCC Cat. #CCL-247), SKBR3 breast carcinoma (ATCC Cat. #HTB-30) and BT474 breast carcinoma (ATCC Cat. #HTB-20).
(§4) The carcinoma cells were trypsinized and counted. The cells (3000-8000 count) were added to each well of a 96-well CytoStar tissue culture treated scintillating microplate (Amersham #RPNQ0160) in complete medium (100 μL) and the plate was then incubated in complete medium for 24 hrs at 37° C. in an inert atmosphere containing 5% CO2.
(§5) Test compound (1 μL) in 100% DMSO was added to the plate test-wells with DMSO only added to control-wells. The plate was incubated in complete medium for a second 24 hr period at 37° C. in an atmosphere containing 5% CO2.
(§6) An aliquot of a solution of Methyl ^14C-thymidine (56 mC/mmol) (NEN #NEC568 or AMersham #CFA532) and complete medium (20 uL to provide 0.2 μCl/well) was then added to each well and the plate was incubated for a third 24 hr period at 37° C. in an atmosphere containing 5% CO2.
(§7) The plate contents were then discarded, the plate washed twice with PBS (200 μL) and then PBS (200 μL) was added to each well. The plate was sealed and the degree of methyl ^14C-thymidine incorporation was quantified on a Packard Top Count.
(§8) Cell proliferation of the Hela cell line was measured using the ATP-Lite method as described in the ATP Lite Kit (Perkin-Elmer Kit Number 6106941) or the C^14 method as described above. Cell proliferation of the other cell lines was measured using the C^14 method.

[1] = tested on: HeLa cervical adenocarcinoma; assay: Cell Proliferation Inhibition Assay, Hela (ATP Lite); assay type: cell-based; conditions: Homo sapiens, ATP-Lite method
Text: as §1, §2, §3, §4, §5, §8

EGFR = target: T1, EGFR (Homo sapiens, UniProt P00533); assay: EGFR Kinase Assay; assay type: biochemical; conditions: GST-EGFR, ATP 5 μM
T1 construct: The intracellular portion of EGFR started at nucleotide 2189 (corresponding to amino acid 667) and ended at the termination codon; made in house; host or cells: Sf9 insect cells (baculovirus)
How it was run: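 GST-fused human EGFR intracellular domain (from aa 667), Sf9-expressed, phosphorylated biotinylated polyGluTyr with 5 μM ATP plus γ-33P ATP in Tris pH 8.0, MgCl2, vanadate, 1 mM DTT, 1 h at 30 °C. Streptavidin Flashplate scintillation read; triplicate 16-point half-log series from 200 uM; IC50 from % inhibition vs log concentration, else % inhibition at 2 μM.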

SKBR3 breast carcinoma = assay: Cell Proliferation Inhibition Assay, SKBR3 (14C-thymidine); assay type: cell-based; conditions: Homo sapiens, SK-BR-3, C14 method
Text: as §1, §2, §3, §4, §5, §6, §7, §8

HER-2 = target: T2, HER-2 (Homo sapiens, UniProt P04626); assay: HER-2 Kinase Assay; assay type: biochemical; conditions: for inhibition at 1 µM: test concentration of 1 μM; for IC50: value in parentheses
T2 construct: His6 with thrombin site (N); purchased Proqinase (Freiburg, Germany)
How it was run: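 GST/HIS6-tagged HER-2 aa 679–1255 kinase with biotinylated polyGluTyr (1.5 ng/μL), 1 μM ATP plus γ-33P-ATP, Mg2+/Mn2+, DTT, Hepes pH 7.5; 1 h at 30 °C. Substrate phosphorylation captured on streptavidin scintillation plates after EDTA/PBS washes; values are % inhibition at 1 μM or IC50.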

[2] = tested on: Human epidermoid A431 carcinoma; assay: In Vivo Models - Inhibition of Tumor Growth, A431; conditions: oral daily for 30 days, athymic mice
Description: (§9) In Vivo Models—Inhibition of Tumor Growth
(§10) The ability of test compounds to inhibit unregulated growth of human tumor cells in vivo was evaluated by implanting human tumor cells into the hindflank of athymic mice, administering a test compound and then quantifying any change in tumor size.
(§11) Human epidermoid A431 carcinoma, N87 cells and BT474 cells were implanted subcutaneously into the hindflank of female athymic mice (Charles River) and allowed to grow for 6-10 days. After a measurable tumor was established (as determined by baseline caliper measurement), the animal was administered an oral dose of the test compound daily for a period of 30 days. Tumor size was measured every five days and the degree of inhibition was determined by comparing drug-treated animals to vehicle-treated animals.
(§12) Variations of this method are intended to include intraperitoneal injection or intravenous infusion as the route of administration and administration of the test compound either alone or in a combination therapy.
(§13) The inhibition of tumor growth values are shown in Table 8 at various test concentrations, as indicated. For compounds with multiple values at one test concentration, each value represents a separate assay result.

HER-4 = target: T3, HER-4 (Homo sapiens, UniProt Q15303); assay: HER-4 Kinase Assay; assay type: biochemical
T3 construct: His6 with thrombin site (N); purchased Proqinase (Freiburg, Germany)
Description: The HER-4 kinase used was purified at Proqinase (Freiburg, Germany) from a construct that consisted of a fusion of GST (Glutathione-S-Transferase), HIS6-Thrombin and the nucleotides encoding amino acids 676 to 1307 of HER-4 (Accession NM 005235).
A mixture of a 10× kinase reaction buffer (600 mM Hepes at pH 7.5, 30 mM Magnesium Chloride, 0.03 mM Sodium Vanadate and 500 μg/mL PEG 20,000), DTT (1.2 mM final from a 10 mM) stock), ATP (1 μM from a 10 mM stock), biotinylated polyGluTyr (1.5 ng/μL final from stock of 1 μg/μL) prepared by Upstate Biotechnologies, Lake Placid, N.Y.), Manganese Chloride (3 mM final from a 1 M stock), γ-^33P-ATP (10 μCl/mL stock) and water (70 μL/well) was added to each well of a Streptavidin Flashplate (Cat. # SMP103, NEN, Boston, Mass.).
Test compound stock (1 μL) was added to the appropriate wells. Diluted GST HER-4 kinase (6.7 ng/μL diluted into 50 mM Tris-HCl at pH 8.0 and 0.1% bovine serum albumin) (30 μL) was added (total volume of 200 ng/well) to initiate the reactions.
The reaction plates were incubated at 30° C. for 1 hr. The reaction was terminated by aspirating the reaction mixture from the plate wells and washing the wells three times with a 1×PBS stop buffer (300 μL) and 100 mM EDTA. After the final wash, the same stop buffer (200 μL) was again added to the wells. The plates were then sealed and read on the TopCount scintillation counter.
For a series of test concentrations, the IC50 was derived by graphing percent inhibition against the log of the concentrations tested for a given compound.

N87 cells = assay: In Vivo Models - Inhibition of Tumor Growth, N87; conditions: Mus musculus, po, 720 h, oral daily for 30 days, athymic mice, read-out: percent inhibition N87
Description: as §9, §10, §11, §12, §13

BT474 cells = assay: In Vivo Models - Inhibition of Tumor Growth, BT474; conditions: 100 mg/kg, oral daily for 30 days, athymic mice
Description: as §9, §10, §11, §12, §13

T2 sequence (P04626 679-1255): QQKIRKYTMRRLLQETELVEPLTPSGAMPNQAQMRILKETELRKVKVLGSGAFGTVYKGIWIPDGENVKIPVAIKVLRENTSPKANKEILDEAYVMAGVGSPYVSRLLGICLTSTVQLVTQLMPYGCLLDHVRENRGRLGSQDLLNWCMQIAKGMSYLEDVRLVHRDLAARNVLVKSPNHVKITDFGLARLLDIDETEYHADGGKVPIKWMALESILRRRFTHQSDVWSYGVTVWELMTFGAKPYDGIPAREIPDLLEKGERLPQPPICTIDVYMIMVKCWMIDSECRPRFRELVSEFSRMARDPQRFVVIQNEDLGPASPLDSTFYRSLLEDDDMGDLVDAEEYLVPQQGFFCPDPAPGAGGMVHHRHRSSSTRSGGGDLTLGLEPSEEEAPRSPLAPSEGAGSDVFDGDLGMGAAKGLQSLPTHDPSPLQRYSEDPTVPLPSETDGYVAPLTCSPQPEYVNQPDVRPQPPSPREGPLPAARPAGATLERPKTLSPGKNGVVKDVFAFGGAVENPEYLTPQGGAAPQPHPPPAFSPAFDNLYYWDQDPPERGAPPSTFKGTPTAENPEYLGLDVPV
T1 sequence (P00533 669-1210 limits assumed): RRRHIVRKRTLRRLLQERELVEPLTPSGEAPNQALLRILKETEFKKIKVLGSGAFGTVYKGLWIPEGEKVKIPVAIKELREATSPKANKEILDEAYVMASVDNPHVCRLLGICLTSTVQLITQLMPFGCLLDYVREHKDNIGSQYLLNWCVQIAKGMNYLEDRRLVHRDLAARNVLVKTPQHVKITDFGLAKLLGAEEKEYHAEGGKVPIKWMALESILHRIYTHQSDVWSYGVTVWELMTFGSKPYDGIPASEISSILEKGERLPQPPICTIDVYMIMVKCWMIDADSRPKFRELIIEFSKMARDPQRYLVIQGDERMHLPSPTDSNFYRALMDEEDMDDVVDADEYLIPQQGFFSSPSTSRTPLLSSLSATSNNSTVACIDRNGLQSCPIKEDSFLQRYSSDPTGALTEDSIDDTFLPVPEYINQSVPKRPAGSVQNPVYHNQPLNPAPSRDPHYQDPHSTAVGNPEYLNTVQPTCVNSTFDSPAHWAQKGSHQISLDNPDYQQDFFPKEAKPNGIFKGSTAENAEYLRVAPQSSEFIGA
T3 sequence (Q15303 676-1307): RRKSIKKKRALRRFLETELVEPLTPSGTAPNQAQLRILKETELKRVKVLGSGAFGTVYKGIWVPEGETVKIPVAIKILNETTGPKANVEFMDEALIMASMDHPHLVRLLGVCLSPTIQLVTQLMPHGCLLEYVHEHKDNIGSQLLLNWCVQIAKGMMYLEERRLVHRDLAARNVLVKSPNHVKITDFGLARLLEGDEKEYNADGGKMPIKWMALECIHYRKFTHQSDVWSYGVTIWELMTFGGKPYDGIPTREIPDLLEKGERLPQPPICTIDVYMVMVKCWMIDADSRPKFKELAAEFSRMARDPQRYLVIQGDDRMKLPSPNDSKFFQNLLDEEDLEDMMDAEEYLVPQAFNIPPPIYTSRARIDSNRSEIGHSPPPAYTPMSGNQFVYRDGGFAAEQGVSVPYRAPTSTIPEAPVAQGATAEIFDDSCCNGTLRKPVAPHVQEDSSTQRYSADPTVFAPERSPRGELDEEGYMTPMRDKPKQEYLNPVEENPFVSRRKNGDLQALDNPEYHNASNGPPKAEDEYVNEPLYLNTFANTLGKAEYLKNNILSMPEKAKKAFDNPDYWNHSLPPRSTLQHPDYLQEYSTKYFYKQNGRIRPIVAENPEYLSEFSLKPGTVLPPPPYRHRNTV

Row | SMILES | IC50 (BT474 breast carcinoma) | IC50 [1] | IC50 (EGFR) | IC50 (SKBR3 breast carcinoma) | inhibition at 1 µM (HER-2) | percent inhibition A431 ([2]; 100 mg/kg) | IC50 (HER-4) | inhibition in vivo at 100 mg/kg (N87 cells) | IC50 (HER-2) | percent inhibition A431 ([2]; 10 mg/kg) | percent inhibition A431 ([2]; 30 mg/kg) | percent inhibition BT474 (BT474 cells) | inhibition in vivo at 25 mg/kg (N87 cells; 25 mg/kg) | inhibition in vivo at 50 mg/kg (N87 cells; 50 mg/kg)
1 | O=C(Nc1ccc(CN2CCCCC2)cc1)c1sc2ncnc3c2c1NC(=O)N3c1ccc(F)c(Cl)c1 [Cpd 3, 5-(3-chloro-4-fluoro-phenyl)-4-oxo-4,5-dihydro-3H-1-thia-3,5,6,8-tetraaza-acenaphthylene-2-carboxylic acid (4-piperidin-1-ylmethyl-phenyl)-amide] | 9.58 µM | 42.6 µM | 9 nM | 9.72 µM | 59% | – | – | – | – | – | – | – | – | –
2 | COc1cc(NC(=O)c2sc3ncnc4c3c2NC(=O)N4c2cccc(Br)c2)ccc1OCCN1CCCCC1 [Cpd 63, 5-(3-bromo-phenyl)-4-oxo-4,5-dihydro-3H-1-thia-3,5,6,8-tetraaza-acenaphthylene-2-carboxylic acid [3-methoxy-4-(2-piperidin-1-yl-ethoxy)-phenyl]-amide] | ≥ 10 µM | 59 µM | 104 nM | 26.9 µM | 45% | – | – | – | – | – | – | – | – | –
3 | O=C(Nc1ccc(CN2CCC(O)CC2)cc1)c1sc2ncnc3c2c1NC(=O)N3c1ccc(Oc2ccccc2)cc1 [Cpd 233, 4-oxo-5-(4-phenoxy-phenyl)-4,5-dihydro-3H-1-thia-3,5,6,8-tetraaza-acenaphthylene-2-carboxylic acid [4-(4-hydroxy-piperidin-1-ylmethyl)-phenyl]-amide] | – | – | 17 nM | – | – | 2.2% | 9 nM | 38.3% | 9 nM | – | – | – | – | –
4 | O=C(Nc1ccc(CN2CCOCC2)cc1)c1sc2ncnc3c2c1NC(=O)N3c1ccc(OCc2ccco2)c(Cl)c1 [Cpd 245, 5-[3-chloro-4-(furan-2-ylmethoxy)-phenyl]-4-oxo-4,5-dihydro-3H-1-thia-3,5,6,8-tetraaza-acenaphthylene-2-carboxylic acid (4-morpholin-4-ylmethyl-phenyl)-amide] | – | – | 24 nM | – | – | – | 227 nM | 48.7% | 48 nM | – | – | – | – | –
5 | O=C(Nc1ccc(CN2CCC(F)CC2)cc1)c1sc2ncnc3c2c1NC(=O)N3c1ccc(Oc2ccccc2)cc1 [Cpd 250, 4-oxo-5-(4-phenoxy-phenyl)-4,5-dihydro-3H-1-thia-3,5,6,8-tetraaza-acenaphthylene-2-carboxylic acid [4-(4-fluoro-piperidin-1-ylmethyl)-phenyl]-amide] | – | – | 37 nM | – | – | – | 33 nM | 68.9% | 26 nM | – | – | – | – | –
6 | COC1CCN(Cc2ccc(NC(=O)c3sc4ncnc5c4c3NC(=O)N5c3ccc(Oc4ccccc4)cc3)cc2)CC1 [Cpd 261, 4-oxo-5-(4-phenoxy-phenyl)-4,5-dihydro-3H-1-thia-3,5,6,8-tetraaza-acenaphthylene-2-carboxylic acid [4-(4-methoxy-piperidin-1-ylmethyl)-phenyl]-amide] | – | – | 18 nM | – | – | 86.1% and 80.1% | – | 75.4% | 11 nM | 44% | 54.1% | 98% | 69.6% | 71%
